Experimental data taken from PMC5034043 (The Journal of Biological Chemistry, 2016).
Read-outs that look alike come from different tables or passages of the source.

Columns and labels:
[1] = test system: X. laevis tadpoles; test: In vivo photolabeling in tadpoles (recovery after UV irradiation); design: species or system Xenopus laevis; settings: 12 μM for 30 min, then 10 min low intensity UV irradiation
Method: Tadpoles were then exposed to 10 min of low intensity UV irradiation or were maintained as a 10-min non-UV irradiation control.
(§1) Behavioral activity was initially determined in albino X. laevis tadpoles (stages 45–47) as described previously ([29], [33]). All animal care and experimental procedures involving X. laevis tadpoles were carried out according to a protocol approved by the IACUC of the University of Pennsylvania.

[2] = test system: X. laevis tadpoles; test: animal or person; format: in vivo; settings: for EC50: Xenopus laevis, read-out: EC50 (95% CI); for observable toxicity in tadpoles / pharmacological end point in tadpoles: in vivo
Method: as §1

[3] = buffer
[4] = target: T1, horse spleen apoferritin (Equus caballus, UniProt P02791); test: 1-AMA displacement fluorescence assay; format: binding
T1 construct: soluble protein model horse spleen apoferritin; from tissue; host or cells: horse spleen
T1 sequence (P02791 2-175 limits assumed): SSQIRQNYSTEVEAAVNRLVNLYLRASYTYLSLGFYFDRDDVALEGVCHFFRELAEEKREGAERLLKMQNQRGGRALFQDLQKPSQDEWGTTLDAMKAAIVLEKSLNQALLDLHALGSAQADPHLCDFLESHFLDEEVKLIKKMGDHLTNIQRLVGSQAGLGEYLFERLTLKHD
Method: 1-AMA fluorescence inhibition has been reported as a reliable measurement of anesthetic occupation of the horse spleen apoferritin anesthetic site ([64]). 1-AMA displacement studies were conducted as described previously ([29]). The fluorescence intensity versus concentration data were fitted to variable slope Hill models to obtain the IC50 and Hill slope. The KD value was calculated using the Cheng-Prusoff equation to correct for the presence of the 1-AMA competitors.

[5] = test system: alkylphenol-binding proteins within synaptosomes; test: Fluorescent profiling: protection from AziPm-click (1) photolabeling of synaptosomes; design: species or system mouse; settings: propofol 75–375 μM; ketamine 150–450 μM; triplicate
Method: (§2) Synaptosomes were resuspended to 1 mg of protein/ml in HEPES buffer medium (in mM: 140 NaCl, 5 KCl, 5 NaHCO3, 1.2 NaH2PO4, 1 MgCl2, 10 glucose, and 10 HEPES (pH 7.4)). […] The samples were allowed to equilibrate for 5 min before being transferred to a parafilm-sealed 1-mm path length quartz cuvette. The sample was then irradiated for 20 min at a peak bandwidth of 350 nm (Rayonet RPR-3500 lamp) ∼6 cm from the light source. Non-irradiated samples were left in the dark at ambient temperature (22–25 °C) for 20 min. All remaining procedures were conducted with restricted light exposure.

[6] = test system: GABAA receptor subunits; test: Western blotting of streptavidin-captured GABAA receptor subunits with ligand protection; format: binding, mouse; settings: AziPm-click (1) 10 μM, protecting ligand 100 μM, UV irradiation; n = 4
Method: as §2
To 750 μg of photolabeled or control synaptosome samples, 40 μl of 10% SDS and 2 μl of 5 mM DTT in water were added. Samples were then vortexed, heated for 10 min at 65 °C, and then briefly cooled. Final concentrations of 150 μM azide-biotin (Click Chemistry Tools), 2 mM tris(3-hydroxypropyltriazolylmethyl)amine (Sigma), 1 mM ascorbic acid (Sigma), and 1 mM CuSO4·5H2O (Sigma) were added to each sample and vortexed vigorously. The samples were left in the dark at ambient temperature (22–25 °C) for 1 h with mild agitation. Directly to each sample 4× volume chilled methanol, 1.5× chilled chloroform, and 3× chilled double distilled H2O were added. Samples were vortexed vigorously and centrifuged at 1,400 × g for 30 min at 4 °C. […]

Row | Compound | immobility after drug washout [1] | EC50 [2] | observable toxicity in tadpoles [2] | pharmacological end point in tadpoles [2] | half-life (t½) of time-dependent photoreactivity [3] | Hill slope (mean ± S.E.), 1-AMA displacement [4] | Kd ([4]; fluorescence data derived from the Cheng-Prusoff equation, read-out: KD (95% CI), 1-AMA displacement) | fluorescent labeling of synaptosomal proteins by AziPm-click (1) in presence of protecting ligand [5] | protection of GABAA receptor α and β subunits from AziPm-click (1) capture [6] | Kd [4]
1 | C#CCOCc1ccc(C2(C(F)(F)F)N=N2)cc1O [AziPm-click (1), 2-((prop-2-yn-1-yloxy)methyl)-5-(3-(trifluoromethyl)-3H-diazirin-3-yl)phenol] | prolonged immobility after drug washout | 6.1 µM | no observable toxicity | reversible hypnosis | 25 min | −0.97 ± 0.39 | 4 µM | – | – | –
2 | CC(C)c1cccc(C(C)C)c1O [propofol, 2,6-diisopropylphenol, reference compound] | – | 0.9 µM | no observable toxicity | reversible hypnosis | – | −1.1 ± 0.33 | – | decreased | significant decreases in capture efficiency | 2.4 µM
